In data set [1] the test system is aneurysmal RASMC cultures. As to the kind of experiment: Exogenous DOX on aneurysmal RASMC cultures (previous studies by the inventors). Type of data set: cell-based, rat.
The conditions of data set [2]: equivalent to standard oral doses; mice and human patients; Ding et al. 2005; cited from earlier work.

Each structure is given as a SMILES string.

For the compound `C[C@H]1c2cccc(O)c2C(=O)C2=C(O)[C@]3(O)C(=O)C(C(N)=O)=C(O)[C@@H](N(C)C)[C@@H]3[C@@H](O)[C@@H]21` [DOX, doxycycline], in data set [1] (observed by the inventors), the “exogenously delivered dose observed to inhibit proliferation and elastic matrix synthesis by EaRASMCs” value worked out at 5.0 µg/mL. For the same compound, the “exogenous DOX dosage that limited the viability of aneurysmal RASMC cultures” value in data set [1] (previous studies by the inventors) came out at 5.0 µg/mL. In addition, the “DOX concentration measured within AAA tissues” value in data set [2] is about 50 ng/mL.

The values are drawn from US20190274975A1, “NANOPARTICLES FOR STIMULATING ELASTOGENESIS” (The Cleveland Clinic Foundation, priority 2013, published 2019).
